Experimental data reported in ChEMBL document CHEMBL5096241, “Discovery of 3-Aminopyrazole Derivatives as New Potent and Orally Bioavailable AXL Inhibitors” (J Med Chem, 2022).
Calls of active or inactive are those of the source. The rule behind the calls is not given here.

Tests used:
[1] = test system: 4T1; experiment: Antitumor activity against metastatic mouse 4T1 cells implanted in BALB/c mouse assessed as reduction in number of liver metastases at 100 mg/kg, po qd administered for 14 consecutive days by H & E staining based microscopic analysis (reference value: 24.7 +/- 6.7); format: functional; conditions: time 14 day
[2] = biological target: Mitogen-activated protein kinase kinase kinase kinase 5 (Homo sapiens, UniProt Q9Y4K4); experiment: Binding affinity to MAP4K5 (unknown origin) assessed as dissociation constant by competition binding assay
Sequence of Mitogen-activated protein kinase kinase kinase kinase 5 (Q9Y4K4 whole entry): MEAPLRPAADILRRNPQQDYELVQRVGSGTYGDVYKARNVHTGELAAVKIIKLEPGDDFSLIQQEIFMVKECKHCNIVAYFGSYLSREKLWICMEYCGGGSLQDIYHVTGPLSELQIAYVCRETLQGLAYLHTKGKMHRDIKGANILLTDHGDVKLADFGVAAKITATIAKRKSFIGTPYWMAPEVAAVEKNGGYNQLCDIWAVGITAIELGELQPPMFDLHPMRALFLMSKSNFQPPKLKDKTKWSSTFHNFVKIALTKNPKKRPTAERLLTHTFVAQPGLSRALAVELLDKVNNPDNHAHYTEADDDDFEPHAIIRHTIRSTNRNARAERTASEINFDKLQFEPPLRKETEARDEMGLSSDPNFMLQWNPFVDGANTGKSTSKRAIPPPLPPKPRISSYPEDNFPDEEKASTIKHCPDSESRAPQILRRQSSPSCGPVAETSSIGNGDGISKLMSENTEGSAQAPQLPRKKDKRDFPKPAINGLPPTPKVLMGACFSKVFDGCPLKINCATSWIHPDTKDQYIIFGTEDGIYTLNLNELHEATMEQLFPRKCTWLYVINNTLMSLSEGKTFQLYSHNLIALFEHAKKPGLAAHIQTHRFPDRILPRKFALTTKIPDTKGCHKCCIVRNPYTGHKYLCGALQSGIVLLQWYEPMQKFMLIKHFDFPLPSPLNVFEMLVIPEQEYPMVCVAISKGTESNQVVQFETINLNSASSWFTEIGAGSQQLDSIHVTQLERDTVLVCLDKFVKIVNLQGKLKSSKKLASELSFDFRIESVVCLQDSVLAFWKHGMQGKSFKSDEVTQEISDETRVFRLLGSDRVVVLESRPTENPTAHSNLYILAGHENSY

[3] = Inhibition of TGF-beta induced cell invasion in human MDA-MB-231 cells at 0.11 uM incubated for 24 hrs by crystal violet staining based transwell assay relative to control; format: functional
[4] = Oral bioavailability in Sprague-Dawley rat at 25 mg/kg measured for 96 hrs by LC-MS analysis; format: ADME, organism-based; conditions: in vivo
[5] = test system: 4T1; experiment: Antitumor activity against metastatic mouse 4T1 cells implanted in BALB/c mouse assessed as reduction in number of liver metastases at 50 mg/kg, po qd administered for 14 consecutive days by H & E staining based microscopic analysis (reference value: 24.7 +/- 6.7); format: functional; conditions: time 14 day
[6] = biological target: Tyrosine-protein kinase receptor UFO (Mus musculus) (UniProt Q00993); experiment: Inhibition of AXL phosphorylation at Tyr702 residue in mouse 4T1 cells measured after 6 hrs by Western blot analysis; format: cell-based; conditions: dose 0.8-500 nM, DDE = dose-dependent effect
Sequence of Tyrosine-protein kinase receptor UFO (Mus musculus) (Q00993 whole entry): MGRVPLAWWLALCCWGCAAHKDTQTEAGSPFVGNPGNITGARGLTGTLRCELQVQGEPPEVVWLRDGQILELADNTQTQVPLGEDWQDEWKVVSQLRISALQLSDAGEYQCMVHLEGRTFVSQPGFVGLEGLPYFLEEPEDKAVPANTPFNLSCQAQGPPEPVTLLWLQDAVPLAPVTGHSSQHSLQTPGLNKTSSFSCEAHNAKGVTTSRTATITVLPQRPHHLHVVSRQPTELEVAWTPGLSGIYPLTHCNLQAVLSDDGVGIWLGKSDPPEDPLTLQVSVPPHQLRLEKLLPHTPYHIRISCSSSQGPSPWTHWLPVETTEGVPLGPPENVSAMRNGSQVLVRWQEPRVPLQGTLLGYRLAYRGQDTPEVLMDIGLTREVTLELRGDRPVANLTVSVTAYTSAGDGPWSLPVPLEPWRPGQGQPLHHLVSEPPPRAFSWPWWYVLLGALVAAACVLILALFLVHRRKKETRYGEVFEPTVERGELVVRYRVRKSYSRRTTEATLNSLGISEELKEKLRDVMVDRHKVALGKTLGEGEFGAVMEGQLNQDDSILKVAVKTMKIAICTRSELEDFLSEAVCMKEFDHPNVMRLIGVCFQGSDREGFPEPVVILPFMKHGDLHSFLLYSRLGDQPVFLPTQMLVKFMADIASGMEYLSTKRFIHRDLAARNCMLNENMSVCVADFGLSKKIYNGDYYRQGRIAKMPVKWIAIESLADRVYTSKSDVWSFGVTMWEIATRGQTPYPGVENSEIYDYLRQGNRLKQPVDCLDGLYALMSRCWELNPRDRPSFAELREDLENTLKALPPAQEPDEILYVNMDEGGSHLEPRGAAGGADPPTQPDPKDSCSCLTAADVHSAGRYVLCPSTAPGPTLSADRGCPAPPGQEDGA

[7] = biological target: T1, Macrophage colony-stimulating factor 1 receptor (Homo sapiens, UniProt P07333); experiment: Binding affinity to CSF1R (unknown origin) assessed as dissociation constant by competition binding assay
T1 sequence (P07333 whole entry): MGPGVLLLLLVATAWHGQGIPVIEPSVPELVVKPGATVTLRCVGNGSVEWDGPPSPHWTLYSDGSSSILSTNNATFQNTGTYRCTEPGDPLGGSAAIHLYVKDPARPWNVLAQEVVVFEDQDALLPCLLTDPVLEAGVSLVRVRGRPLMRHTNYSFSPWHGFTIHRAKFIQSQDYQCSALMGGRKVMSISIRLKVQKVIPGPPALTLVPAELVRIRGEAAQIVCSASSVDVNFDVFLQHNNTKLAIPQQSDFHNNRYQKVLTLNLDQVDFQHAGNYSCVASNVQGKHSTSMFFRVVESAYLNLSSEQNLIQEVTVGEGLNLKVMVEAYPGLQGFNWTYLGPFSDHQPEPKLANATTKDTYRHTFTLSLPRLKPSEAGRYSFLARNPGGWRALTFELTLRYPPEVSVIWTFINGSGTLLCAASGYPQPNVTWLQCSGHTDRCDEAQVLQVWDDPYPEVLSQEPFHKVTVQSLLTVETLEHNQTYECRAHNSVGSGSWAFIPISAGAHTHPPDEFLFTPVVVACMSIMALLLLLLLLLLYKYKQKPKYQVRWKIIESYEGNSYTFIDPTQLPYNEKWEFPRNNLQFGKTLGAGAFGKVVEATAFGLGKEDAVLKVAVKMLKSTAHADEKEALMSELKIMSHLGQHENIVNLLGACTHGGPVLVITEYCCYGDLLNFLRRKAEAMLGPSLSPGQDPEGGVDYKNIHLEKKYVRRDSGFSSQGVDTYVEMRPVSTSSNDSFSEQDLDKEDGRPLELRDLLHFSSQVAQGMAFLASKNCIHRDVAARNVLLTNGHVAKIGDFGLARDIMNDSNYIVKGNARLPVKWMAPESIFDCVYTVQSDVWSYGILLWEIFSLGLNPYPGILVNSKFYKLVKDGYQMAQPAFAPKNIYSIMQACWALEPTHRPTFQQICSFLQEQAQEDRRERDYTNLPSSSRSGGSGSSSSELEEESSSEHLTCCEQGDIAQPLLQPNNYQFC

[8] = test system: BaF3; experiment: Antiproliferative activity against mouse BaF3 cells transfected with TEL-AXL assessed as inhibition of cell growth incubated for 72 hrs; format: functional, cell-based; conditions: BaF3, 72 h
[9] = Half life in Sprague-Dawley rat at 5 mg/kg, iv measured for 96 hrs by LC-MS analysis; format: ADME, organism-based; conditions: in vivo
[10] = test system: MDA-MB-231; experiment: Inhibition of TGF-beta induced cell migration in human MDA-MB-231 cells assessed as reduction in wound closure at 1 to 3 uM incubated for 24 hrs by bright field microscopy based wound healing assay; format: functional; conditions: dose 1-3 µM
[11] = test system: MDA-MB-231; experiment: Inhibition of TGF-beta induced epithelial mesenchymal transition process in human metastatic MDA-MB-231 cells assessed as restoration of E-cadherin expression incubated for 3 days by Western blot analysis; format: functional, cell-based; conditions: dose 0.11-3 µM, time 3.0 day, DDE = dose-dependent effect
[12] = biological target: Receptor-type tyrosine-protein kinase FLT3 (Homo sapiens, UniProt P36888); experiment: Binding affinity to FLT3 (unknown origin) assessed as dissociation constant by competition binding assay
[13] = biological target: Tyrosine-protein kinase receptor UFO (Homo sapiens) (UniProt P30530); experiment: Inhibition of AXL phosphorylation at Tyr702 residue in human MDA-MB-231 cells measured after 6 hrs by Western blot analysis; format: cell-based; conditions: dose 0.8-500 nM, DDE = dose-dependent effect
[14] = Inhibition of TGF-beta induced cell invasion in human MDA-MB-231 cells at 1 uM incubated for 24 hrs by crystal violet staining based transwell assay relative to control; format: functional
[15] = biological target: Serine/threonine-protein kinase 10 (Homo sapiens, UniProt O94804); experiment: Binding affinity to LOK (unknown origin) assessed as dissociation constant by competition binding assay
[16] = biological target: T2, Tyrosine-protein kinase receptor UFO (Homo sapiens, UniProt P30530); experiment: Inhibition of recombinant AXL (unknown origin) using poly (Glu,Tyr) 4:1 as substrate incubated for 60 mins in presence of ATP by ELISA
T2 sequence (P30530 whole entry): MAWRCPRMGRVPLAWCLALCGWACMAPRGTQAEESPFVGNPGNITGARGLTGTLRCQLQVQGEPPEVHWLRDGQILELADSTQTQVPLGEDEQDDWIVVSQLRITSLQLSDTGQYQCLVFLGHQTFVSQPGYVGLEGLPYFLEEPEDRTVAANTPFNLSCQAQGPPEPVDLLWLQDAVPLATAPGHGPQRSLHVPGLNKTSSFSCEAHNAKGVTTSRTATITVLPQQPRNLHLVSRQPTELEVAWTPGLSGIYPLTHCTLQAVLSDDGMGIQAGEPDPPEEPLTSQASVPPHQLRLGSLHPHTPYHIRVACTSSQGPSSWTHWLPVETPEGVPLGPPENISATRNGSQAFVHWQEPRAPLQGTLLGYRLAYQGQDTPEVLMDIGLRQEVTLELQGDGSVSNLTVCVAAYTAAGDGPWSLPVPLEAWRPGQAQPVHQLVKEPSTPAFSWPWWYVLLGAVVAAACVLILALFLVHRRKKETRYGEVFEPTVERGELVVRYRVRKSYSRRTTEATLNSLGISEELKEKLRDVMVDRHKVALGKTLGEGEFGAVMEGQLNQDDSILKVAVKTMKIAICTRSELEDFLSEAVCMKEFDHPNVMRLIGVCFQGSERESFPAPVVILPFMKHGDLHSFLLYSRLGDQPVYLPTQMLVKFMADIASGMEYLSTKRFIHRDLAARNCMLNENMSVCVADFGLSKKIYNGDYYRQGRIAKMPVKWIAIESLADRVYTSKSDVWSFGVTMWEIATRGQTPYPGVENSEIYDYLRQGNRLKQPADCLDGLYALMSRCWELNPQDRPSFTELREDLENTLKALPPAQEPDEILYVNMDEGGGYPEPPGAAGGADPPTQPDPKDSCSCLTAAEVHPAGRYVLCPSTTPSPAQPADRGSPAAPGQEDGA

[17] = Tmax in Sprague-Dawley rat at 5 mg/kg, iv measured for 96 hrs by LC-MS analysis; format: ADME, organism-based; conditions: in vivo
[18] = biological target: Serine/threonine-protein kinase AKT (Homo sapiens) (UniProt P31751+Q9Y243+P31749); experiment: Inhibition of AKT phosphorylation at S473 residue in human MDA-MB-231 cells measured after 6 hrs by Western blot analysis; format: cell-based; conditions: dose 0.8-500 nM, DDE = dose-dependent effect
Sequence of Serine/threonine-protein kinase AKT (Homo sapiens) (P31749 whole entry, looked up): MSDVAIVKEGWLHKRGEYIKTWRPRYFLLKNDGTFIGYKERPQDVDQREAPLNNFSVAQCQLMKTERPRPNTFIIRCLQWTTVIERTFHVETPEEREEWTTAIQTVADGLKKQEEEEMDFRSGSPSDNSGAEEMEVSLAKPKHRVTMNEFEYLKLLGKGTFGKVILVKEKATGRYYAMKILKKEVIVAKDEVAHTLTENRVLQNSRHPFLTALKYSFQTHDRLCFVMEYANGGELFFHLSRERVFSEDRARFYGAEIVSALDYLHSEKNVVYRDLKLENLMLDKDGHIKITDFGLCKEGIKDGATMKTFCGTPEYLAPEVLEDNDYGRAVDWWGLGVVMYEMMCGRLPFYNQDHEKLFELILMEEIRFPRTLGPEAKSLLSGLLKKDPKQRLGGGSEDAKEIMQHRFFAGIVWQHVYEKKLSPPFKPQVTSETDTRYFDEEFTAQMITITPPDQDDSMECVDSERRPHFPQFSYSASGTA
Sequence of Serine/threonine-protein kinase AKT (Homo sapiens) (P31751 whole entry, looked up): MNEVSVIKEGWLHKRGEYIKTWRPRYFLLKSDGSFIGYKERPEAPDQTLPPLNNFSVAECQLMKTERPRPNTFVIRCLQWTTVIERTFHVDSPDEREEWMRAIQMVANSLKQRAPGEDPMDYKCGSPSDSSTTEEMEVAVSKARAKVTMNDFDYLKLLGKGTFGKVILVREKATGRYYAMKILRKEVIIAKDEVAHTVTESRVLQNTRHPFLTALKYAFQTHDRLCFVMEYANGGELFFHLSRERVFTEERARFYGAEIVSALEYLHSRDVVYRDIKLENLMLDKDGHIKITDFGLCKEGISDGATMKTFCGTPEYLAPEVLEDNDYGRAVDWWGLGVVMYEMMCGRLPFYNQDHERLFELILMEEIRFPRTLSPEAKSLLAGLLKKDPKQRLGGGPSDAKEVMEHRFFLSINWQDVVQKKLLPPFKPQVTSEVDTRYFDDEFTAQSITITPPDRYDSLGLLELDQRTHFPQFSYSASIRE
Sequence of Serine/threonine-protein kinase AKT (Homo sapiens) (Q9Y243 whole entry, looked up): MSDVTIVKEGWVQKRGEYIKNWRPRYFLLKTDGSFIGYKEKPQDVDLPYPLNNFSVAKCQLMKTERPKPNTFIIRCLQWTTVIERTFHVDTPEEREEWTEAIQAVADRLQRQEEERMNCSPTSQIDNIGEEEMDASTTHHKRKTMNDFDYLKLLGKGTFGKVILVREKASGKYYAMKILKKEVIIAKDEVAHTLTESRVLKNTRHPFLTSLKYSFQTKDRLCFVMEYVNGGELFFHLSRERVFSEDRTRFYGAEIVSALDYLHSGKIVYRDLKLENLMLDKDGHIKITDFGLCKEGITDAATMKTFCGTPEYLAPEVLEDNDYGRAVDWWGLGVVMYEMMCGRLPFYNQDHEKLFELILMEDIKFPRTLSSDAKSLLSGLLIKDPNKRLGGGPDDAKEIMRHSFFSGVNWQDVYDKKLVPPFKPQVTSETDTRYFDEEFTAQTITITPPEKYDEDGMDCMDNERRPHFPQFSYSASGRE

[19] = test system: MDA-MB-231; experiment: Inhibition of TGF-beta induced epithelial mesenchymal transition process in human metastatic MDA-MB-231 cells assessed as restoration of N-cadherin expression incubated for 3 days by Western blot analysis; format: functional, cell-based; conditions: dose 0.11-3 µM, time 3.0 day, DDE = dose-dependent effect
[20] = AUClast in Sprague-Dawley rat at 5 mg/kg, iv measured for 96 hrs by LC-MS analysis; format: ADME, organism-based; parameters: time 96 hrs, dose 5 mg/kg, route iv; conditions: in vivo
[21] = AUClast in Sprague-Dawley rat at 25 mg/kg, po measured for 96 hrs by LC-MS analysis; format: ADME, organism-based; parameters: time 96 hrs, dose 25 mg/kg, route po; conditions: in vivo
[22] = Tmax in Sprague-Dawley rat at 25 mg/kg, po measured for 96 hrs by LC-MS analysis; format: ADME, organism-based; conditions: in vivo
[23] = test system: 4T1; experiment: In vivo inhibition of AXL phosphorylation in BALB/c mouse implanted with mouse 4T1 cells administered orally once a day for 14 days; format: functional, organism-based; conditions: dose 50-100 mg/kg, route po, time 14.0 day, DDE = dose-dependent effect
[24] = biological target: Vascular endothelial growth factor receptor 1 (Homo sapiens, UniProt P17948); experiment: Binding affinity to FLT1 (unknown origin) assessed as dissociation constant by competition binding assay
[25] = biological target: T1, Macrophage colony-stimulating factor 1 receptor; experiment: Inhibition of CSF1R (unknown origin)
[26] = biological target: Macrophage-stimulating protein receptor (Homo sapiens, UniProt Q04912); experiment: Binding affinity to […] (unknown origin) assessed as dissociation constant by competition binding assay
[27] = Observed AUCinfinity in Sprague-Dawley rat at 5 mg/kg, iv measured for 96 hrs by LC-MS analysis; format: ADME, organism-based; parameters: dose 5 mg/kg, time 96 hrs, route iv; conditions: in vivo

Structure (SMILES): COc1cc2c(Oc3ccc(Nc4nn(C)cc4C(=O)NC4CCCCC4)cc3F)ccnc2cc1OCCCN1CCOCC1
- Activity [1]: 2.8
- Kd [2]: > 1000 nM
- inhibition at 0.11 µM [3]: 22.6%
- bioavailability [4]: 14.4%
- Activity [5]: 3.2
- inhibition [6]: Dde
- Kd [7]: 29 nM
- IC50 [8]: 4.7 nM
- half-life [9]: 3.31 h
- inhibition [10]: Active
- inhibition [11]: Dde
- Kd [12]: 2.5 nM
- inhibition [13]: Dde
- inhibition at 1 µM [14]: 56.5%
- Kd [15]: 880 nM
- IC50 [16]: 1.6 nM
- Tmax [17]: 4.8 min
- inhibition [18]: Dde
- inhibition [19]: Dde
- AUC(0-t) at 96 h [20]: 11700 ng·h/mL
- AUC(0-t) at 96 h [21]: 8410 ng·h/mL
- Tmax [22]: 3 h
- inhibition [23]: Dde
- Kd [24]: 14 nM
- IC50 [25]: 26.7 nM
- Kd [26]: > 1000 nM
- AUC(0-inf) [27]: 11700 ng·h/mL
